{"source": "patent US6727084B1", "about": "“Cold-active beta-galactosidase, the process for its preparation and the use thereof” (Universite de Liege, priority 1999, dated 2004)", "key": {"[1]": {"biological_target": "T1, E. coli β-galactosidase (Sigma G2513) (Escherichia coli, UniProt P00722)", "T1 sequence (P00722 whole entry)": "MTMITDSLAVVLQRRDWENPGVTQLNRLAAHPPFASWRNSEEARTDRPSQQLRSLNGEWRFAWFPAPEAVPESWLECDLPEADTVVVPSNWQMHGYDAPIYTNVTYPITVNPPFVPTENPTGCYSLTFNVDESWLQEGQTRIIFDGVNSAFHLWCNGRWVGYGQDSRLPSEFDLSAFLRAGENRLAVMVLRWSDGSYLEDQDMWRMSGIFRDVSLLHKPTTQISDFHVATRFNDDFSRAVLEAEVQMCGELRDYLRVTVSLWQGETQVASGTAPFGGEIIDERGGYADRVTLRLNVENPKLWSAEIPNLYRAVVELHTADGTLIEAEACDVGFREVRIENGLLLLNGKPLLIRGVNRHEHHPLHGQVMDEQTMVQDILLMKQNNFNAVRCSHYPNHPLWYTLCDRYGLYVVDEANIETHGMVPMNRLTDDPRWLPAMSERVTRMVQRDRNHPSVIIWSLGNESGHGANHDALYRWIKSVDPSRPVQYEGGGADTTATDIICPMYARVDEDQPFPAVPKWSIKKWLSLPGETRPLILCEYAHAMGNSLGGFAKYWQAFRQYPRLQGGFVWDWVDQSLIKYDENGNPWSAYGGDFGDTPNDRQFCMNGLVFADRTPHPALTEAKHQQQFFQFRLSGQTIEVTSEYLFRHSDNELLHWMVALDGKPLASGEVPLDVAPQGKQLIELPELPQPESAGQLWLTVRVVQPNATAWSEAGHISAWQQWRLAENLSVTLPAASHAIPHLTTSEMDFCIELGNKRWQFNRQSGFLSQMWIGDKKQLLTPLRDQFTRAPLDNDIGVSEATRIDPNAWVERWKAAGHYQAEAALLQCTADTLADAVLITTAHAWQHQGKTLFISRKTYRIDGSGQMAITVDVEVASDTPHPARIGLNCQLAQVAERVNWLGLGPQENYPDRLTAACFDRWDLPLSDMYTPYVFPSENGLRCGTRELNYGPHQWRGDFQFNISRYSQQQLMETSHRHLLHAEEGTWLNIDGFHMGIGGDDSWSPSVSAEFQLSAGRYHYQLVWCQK", "test": "biochemical", "conditions": "read-out: stimulation of enzyme activity by 2-mercaptoethanol (factor)", "protocol": "(§1) The β-galactosidase from Escherichia coli used as a control was from Sigma (G2513).\n(§2) The effect of K+ was determined by assaying activity in 100 mM phosphate buffer containing KCl at concentrations from 0 to 100 mM. LMG P-19143 β-galactosidase optimal activity was recorded using a KCl concentration of 80 mM whereas the E. coli β-galactosidase optimal activity was recorded at a KCl concentration of 40 mM. At theses concentrations, KCl stimulated the activity of both enzymes by a factor of 1.5.\n(§3) Optimal activity of the LMG P-19143 enzyme was recorded at 80 mM 2-mercaptoethanol and that of E. coli enzyme at 40 mM 2-mercaptoethanol. At these concentrations, the reducing agent stimulated LMG P-19143 enzyme activity twofold and E. coli enzyme by a factor of 1.5."}, "[2]": {"biological_target": "T2, Pseudoalteromonas haloplanktis LMG P-19143 cold-active β-galactosidase (lac Z), native, SEQ ID NO: 2 (Pseudoalteromonas haloplanktis, UniProt P81650)", "T2 sequence (P81650 whole entry)": "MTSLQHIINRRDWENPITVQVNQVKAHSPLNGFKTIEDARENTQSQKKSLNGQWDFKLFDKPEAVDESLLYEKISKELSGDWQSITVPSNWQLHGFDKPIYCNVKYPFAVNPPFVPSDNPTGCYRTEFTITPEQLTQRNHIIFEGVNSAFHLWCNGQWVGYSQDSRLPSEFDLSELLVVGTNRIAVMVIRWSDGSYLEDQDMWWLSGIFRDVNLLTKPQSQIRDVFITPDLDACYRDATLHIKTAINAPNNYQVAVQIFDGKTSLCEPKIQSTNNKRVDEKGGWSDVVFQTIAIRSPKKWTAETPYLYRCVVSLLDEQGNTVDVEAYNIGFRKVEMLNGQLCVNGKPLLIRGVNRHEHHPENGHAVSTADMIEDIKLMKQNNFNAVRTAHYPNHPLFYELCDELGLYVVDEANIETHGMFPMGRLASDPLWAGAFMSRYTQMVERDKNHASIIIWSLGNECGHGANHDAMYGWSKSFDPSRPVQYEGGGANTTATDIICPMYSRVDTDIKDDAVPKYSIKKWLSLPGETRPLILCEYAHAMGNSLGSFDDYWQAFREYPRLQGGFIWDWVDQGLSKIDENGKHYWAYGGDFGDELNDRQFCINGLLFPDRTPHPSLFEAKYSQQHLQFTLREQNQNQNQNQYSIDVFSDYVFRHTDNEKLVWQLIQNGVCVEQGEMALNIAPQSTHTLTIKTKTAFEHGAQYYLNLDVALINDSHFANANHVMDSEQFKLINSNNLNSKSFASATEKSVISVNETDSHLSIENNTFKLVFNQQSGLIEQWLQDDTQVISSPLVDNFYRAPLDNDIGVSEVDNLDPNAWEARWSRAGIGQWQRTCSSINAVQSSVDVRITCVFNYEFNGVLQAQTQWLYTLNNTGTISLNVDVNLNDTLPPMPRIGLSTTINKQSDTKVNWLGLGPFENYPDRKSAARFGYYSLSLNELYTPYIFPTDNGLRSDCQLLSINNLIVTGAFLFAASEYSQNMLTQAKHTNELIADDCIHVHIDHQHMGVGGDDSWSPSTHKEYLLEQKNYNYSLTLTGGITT", "test": "effect of 2-mercaptoethanol on LMG P-19143 β-galactosidase activity", "type": "biochemical", "parameters": "ORF of 1038 residues", "conditions": "80 mM 2-mercaptoethanol (optimal activity), 100 mM phosphate buffer; ONPG", "protocol": "as §2, §3"}, "[3]": {"biological_target": "T2, Pseudoalteromonas haloplanktis LMG P-19143 cold-active β-galactosidase (lac Z), native, SEQ ID NO: 2", "test": "biochemical", "conditions": "pH 7.5, read-out: residual activity after EDTA treatment (% of initial activity)", "experimental": "The assay of β-galactosidase was carried out using 3 mM ONPG (ortho-nitrophenyl-β-galactopyranoside) as a chromogenic substrate in 100 mM sodium phosphate buffer, pH 7,3, 1 mM MgCl2, 100 mM 2-mercaptoethanol (Sigma). Activities toward the chromogenic substrate were recorded in a thermostated Uvicon 860 Spectrophotometer (Kontron) at 25° C. and calculated on the basis of an extinction coefficient for o-nitrophenol of 3.5 mM^−1 cm^−1 at 410 nm (Miller, J. H. and Reznikoff, W. S., Eds. 1978; The Operon. Cold Spring Harbor Laboratory Press, N.Y.). Assays using lactose as a substrate were carried out using various concentrations of lactose. The reaction was stopped by boiling the sample in a water bath for 3 minutes. The galactose dehydrogenase assay was used to measure the amount of galactose released by the enzyme (Schachter H. 1975, Enzymatic microassays for D-Mannose, D-Glucose, D-Galactose, L-Fucose, and D-Glucosamine. Methods Enzymol., 41: 3-10.) The specific activity of β-galactosidase is defined as micro-moles of galactose released per minute per mg of protein.\nTo determine the effect of divalent metal ions on activity, assays were performed in 100 mM phosphate buffer at 25° C. and pH 7.5. The enzyme preparation was treated with 5 mM EDTA to complex metal ions."}, "[4]": {"biological_target": "T1, E. coli β-galactosidase (Sigma G2513)", "test": "kinetics of E. coli β-galactosidase (control) with ONPG as substrate", "type": "biochemical", "description": "(§4) The definition of enzyme activity units can be defined according to the substrate used with lactose as a substrate, the unit of activity is defined as the amount of enzyme which releases one micro-mole glucose in one minute under standard reaction conditions (temperature, pH). Another commonly used substrate is ortho-nitrophenyl-β-D galactopyranoside (ONPG) and in this case, the unit of activity is defined as the amount of enzyme which hydrolyses one micro-mole of ONPG in one minute under standard reaction conditions.\nas §1\n(§5) The activation energy (Ea) was determined from the slope (−Ea/R) of Arrhenius plot and the thermodynamic activation parameters of the reaction were calculated according to the following equations: […]\n(§6) At 8° C., the kcat (s^−1) of the LMG P-19143 enzyme is twice as high as that of E. coli enzyme. Theses curves have been used to construct Arrhenius plots and to calculate the activation energy parameters of the reaction as shown in table 2.\n(§7) Assays were performed with ONPG as a substrate at various concentrations and at different temperatures to determine Km and Vmax values."}, "[5]": {"biological_target": "T2, Pseudoalteromonas haloplanktis LMG P-19143 cold-active β-galactosidase (lac Z), native, SEQ ID NO: 2", "test": "kinetics of LMG P-19143 β-galactosidase with ONPG as substrate", "type": "biochemical", "parameters": "ORF of 1038 residues", "description": "as §4, §5, §6, §7"}, "[6]": {"biological_target": "T2, Pseudoalteromonas haloplanktis LMG P-19143 cold-active β-galactosidase (lac Z), native, SEQ ID NO: 2", "test": "kinetics of LMG P-19143 β-galactosidase with lactose as substrate (galactose dehydrogenase assay)", "type": "biochemical", "parameters": "ORF of 1038 residues", "conditions": "25° C.", "description": "as §4\nKm was also determined at 25° C. with lactose (1 mM to 50 mM) as a substrate."}}, "note": "“Also recorded” adds a separate entry of the source."}
{"smiles": "OCCS", "note": "[2-mercaptoethanol]", "values": [{"measurement": "fold induction at 40000 µM", "setting": "[1]", "result": 1.5}, {"measurement": "stimulation of enzyme activity by 2-mercaptoethanol", "setting": "[2]", "result": "twofold"}]}
{"smiles": "O=C(O)CN(CCN(CC(=O)O)CC(=O)O)CC(=O)O", "note": "[EDTA]", "values": [{"measurement": "remaining activity at 5000 µM", "setting": "[3]", "result": "< 10", "unit": "%"}]}
{"smiles": "O=[N+]([O-])c1ccccc1O[C@@H]1O[C@H](CO)[C@H](O)[C@H](O)[C@H]1O", "note": "[ONPG, ortho-nitrophenyl-β-D galactopyranoside]", "values": [{"measurement": "apparent Km (compared with LMG P-19143 enzyme)", "setting": "[4]; 10° C.", "result": "nearly the same"}, {"measurement": "kcat", "setting": "[4]; 20° C.", "result": 199, "unit": "s⁻¹"}, {"measurement": "km (comparison of both enzymes)", "setting": "[4]; at low temperature", "result": "comparable"}, {"measurement": "kcat relative to that of E. coli enzyme", "setting": "[5]; ONPG as substrate, 8° C.", "result": "twice as high"}, {"measurement": "apparent Km (compared with E. coli enzyme)", "setting": "[5]; ONPG as substrate, 10° C.", "result": "nearly the same"}, {"measurement": "kcat", "setting": "[5]; ONPG as substrate, 20° C.", "result": 408, "unit": "s⁻¹"}, {"measurement": "km (comparison of both enzymes)", "setting": "[5]; ONPG as substrate, at low temperature", "result": "comparable"}, {"measurement": "physiological efficiency (kcat/km) relative to E. coli enzyme", "setting": "[5]; ONPG as substrate, FIG. 6", "result": "about three times higher"}, {"measurement": "turnover (kcat) relative to E. coli enzyme", "setting": "[5]; ONPG, temperature range of 0-40° C.", "result": "higher"}]}
{"smiles": "OC[C@H]1O[C@@H](O[C@H]2[C@H](O)[C@@H](O)C(O)O[C@@H]2CO)[C@H](O)[C@@H](O)[C@H]1O", "note": "(stereo partly drawn) [lactose]", "values": [{"measurement": "km relative to E. coli enzyme", "setting": "[6]", "result": "five times lower"}, {"measurement": "physiological efficiency (kcat/km) relative to E. coli β-galactosidase", "setting": "[6]", "result": "eighty times as high; also recorded: ninety times higher"}, {"measurement": "turnover (kcat) relative to E. coli enzyme", "setting": "[6]", "result": "fifteen times"}]}
